Assay: Equilibrium/saturation study of solvent solubility in PVA solutions with increasing salt concentration
Format: physicochemical
Description: An equilibrium/saturation study was performed to measure solvent solubilities in PVA solutions in increasing salt concentration levels. The saturation solubility in weight % of ethyl acetate and methylene chloride were individually tested with varying sodium chloride weight % in a 2% PVA aqueous solution. […] At about 15 weight % sodium chloride contention, the PVA began to salt out of the solution.

CCOC(C)=O [ethyl acetate]
saturation solubility in weight % as the sodium chloride content was increased: decreased

Reference: patent publication US10821080B2, “Microencapsulation process with solvent and salt” (Evonik Corporation, priority 2008, dated 2020)
